# What was measured:
# ST88-14 cells = assay: soft agar assay, anchorage-independent growth; type: cell-based; details: Homo sapiens, 504 h, 3 weeks, read-out: inhibition of colony formation
# Description: (§1) Noble agars (2% and 0.6%; Difco, Sparks, Md.) were prepared in double-distilled water and autoclaved. The 2% agar was melted and mixed with medium (DMEM X2 with 20% FCS, 100 μg/mL penicillin, and […]) and the mixture (50 μL) was placed in 96-well plates to provide the base agar (at a final concentration of 1%).
# (§2) To determine whether FTS inhibited the transforming activity associated with NF-1-deficiency and to determine the effect of FTS on anchorage-independent growth, soft agar assays were performed. ST88-14 and STS26T cells were plated in soft agar and then treated with 0.1% DMSO as a control or with FTS (25 μM, 50 μM, or 75 μM) and grown for 3 weeks or 2 weeks, respectively. […] FTS inhibited colony formation of both cell lines; in the presence of 50 μM FTS, for example, colony formation was inhibited by 60% in STS26T cells and by 57% in ST88-14 cells. In the presence of 75 μM FTS, colony formation was inhibited by 84% and 87% in ST88-14 and STS26T cells, respectively.
# STS26T cells = assay: soft agar assay, anchorage-independent growth; type: cell-based; details: Homo sapiens, STS-26T, 336 h, 2 weeks, read-out: inhibition of colony formation
# Description: as §1, §2
# Ras = assay: steady-state Ras levels, Western immunoblotting; type: cell-based, human; details: 75 μM FTS, 48 hours, all cell lines, P<0.05
# Description: Unless otherwise indicated, cells were lysed 48 hours after being treated with lysis buffer, as described in Haklai, et al., supra. […] Protein bands were visualized by ECL and quantified by densitometry with Image Master VDS-CL (Amersham) using TINA 2.0 software (Ray Tests). To obtain reliable comparisons between replicated experiments for statistical analysis, a standardization procedure was used, in which the density of each given protein band as recorded with its specific Ab, was normalized. […] The standard average density was defined as 1.0, and each of the individually determined bands was related to this value. […] Actin cytoskeletal elements were labeled with rhodamine-phalloidin, and digital fluorescence images were collected on a Zeiss LSM 510 confocal microscope fitted with fluorescein and rhodamine filters, as described in Gana-Weisz, M., et al., supra. […]
# [1] = system: NF-1 cell lines T265P21, ST88-14, and 90-8; assay: actin stress fibers, rhodamine-phalloidin confocal microscopy; type: cell-based, human; details: T265P21, ST88-14, and 90-8, 75 μM FTS; controls 82%-87%
# Description: (§3) The human NF-1 MPNST cell lines ST88-14, T265P21 and 90-8 and the non-NF-1 human MPNST cell line STS26T were obtained from Dr. Nancy Ratner. T265P21, 90-8, and ST88-14 cells were maintained in RPMI/15% fetal calf serum (FCS) medium and STS26T cells were maintained in DMEM/10% FCS, as described in Weisz, B., et al., supra. Cells were plated at a density of 1×10^6 cells per 10-cm plate for biochemical and immunoblotting assays, 2.5×10^3 cells/well in 24-well plates for cell-growth assays, or on glass cover slips (5×10^4 cells per 35-mm dish) for labeling of actin cytoskeletal elements. […]
# (§4) Unless otherwise indicated, cells were lysed 48 hours after being treated with lysis buffer, as described in Haklai, et al., supra. […] Protein bands were visualized by ECL and quantified by densitometry with Image Master VDS-CL (Amersham) using TINA 2.0 software (Ray Tests). To obtain reliable comparisons between replicated experiments for statistical analysis, a standardization procedure was used, in which the density of each given protein band as recorded with its specific Ab, was normalized. […] The standard average density was defined as 1.0, and each of the individually determined bands was related to this value. […]
# non-NF-1 STS26T cells = assay: as above; type: cell-based, human; details: 75 μM FTS, mean±SD, n=3, P<0.05
# Description: as §3, §4
smiles,measurement,setting,value
"CC(C)=CCC/C(C)=C/CC/C(C)=C/CSc1ccccc1C(=O)O [FTS, S-farnesylthiosalicylic acid]",inhibition at 50 µM,ST88-14 cells; 50 μM FTS,57%
same,inhibition at 75 µM,ST88-14 cells; 75 μM FTS,84%
same,inhibition at 50 µM,STS26T cells; 50 μM FTS,60%
same,inhibition at 75 µM,STS26T cells; 75 μM FTS,87%
same,reduction in Ras levels,Ras,15-30%
same,"cells with stress fibers after FTS, relative to total cell number",[1],11%-20%
same,increase in stress-fiber formation,non-NF-1 STS26T cells,27%±11.9%

# — patent US20110046223A1, “TREATMENT OF NEUROFIBROMATOSIS” (RAMOT AT TEL-AVIV UNIVERSITY LTD., priority 2006, published 2011)
